# Patent publication US20160376237A1, “NOVEL PYRIDINE DERIVATIVES” (Hoffmann-La Roche Inc., priority 2014, published 2016)
# Biological target: T1, human CB2 receptors (Homo sapiens, UniProt P34972)
# T1 construct: expressed in transfected cells; host or cells: CHO cells
# Test: cAMP assay
# Assay type: cell-based
# Conditions: not given
# Procedure: CHO cells expressing human CB1 or CB2 receptors are seeded 17-24 hours prior to the experiment 50.000 cells per well in a black 96 well plate with flat clear bottom (Corning Costar #3904) in DMEM (Invitrogen No. 31331), 1×HT supplement, with 10% fetal calf serum and incubated at 5% CO2 and 37° C. in a humidified incubator. The growth medium was exchanged with Krebs Ringer Bicarbonate buffer with 1 mM IBMX and incubated at 30° C. for 30 min. Compounds were added to a final assay volume of 100 μl and incubated for 30 min at 30° C. Using the cAMP-Nano-TRF detection kit the assay (Roche Diagnostics) was stopped by the addition of 50 μl lysis reagent (Tris, NaCl, 1.5% Triton X100, 2.5% NP40, 10% NaN3) and 50 μl detection solutions ([…] mAb Alexa700-cAMP 1:[…] Ruthenium-2-AHA-cAMP) and shaken for 2 h at room temperature. The time-resolved energy transfer is measured by a TRF reader (Evotec Technologies GmbH), equipped with a ND:YAG laser as excitation source. The plate is measured twice with the excitation at 355 nm and at the emission with a delay of 100 ns and a gate of 100 ns, total exposure time 10 s at 730 (bandwidth 30 nm) or 645 nm (bandwidth 75 nm), respectively. The FRET signal is calculated as follows: FRET=T730-Alexa730-P(T645-B645) with P=Ru730-B730/Ru645-B645, where T730 is the test well measured at 730 nM, T645 is the test well measured at 645 nm, B730 and B645 are the buffer controls at 730 nm and 645 nm, respectively. cAMP content is determined from the function of a standard curve spanning from […] to 0.13 nM cAMP.
# EC50 values were determined using Activity Base analysis (ID Business Solution, Limited).
# T1 sequence (P34972 whole entry): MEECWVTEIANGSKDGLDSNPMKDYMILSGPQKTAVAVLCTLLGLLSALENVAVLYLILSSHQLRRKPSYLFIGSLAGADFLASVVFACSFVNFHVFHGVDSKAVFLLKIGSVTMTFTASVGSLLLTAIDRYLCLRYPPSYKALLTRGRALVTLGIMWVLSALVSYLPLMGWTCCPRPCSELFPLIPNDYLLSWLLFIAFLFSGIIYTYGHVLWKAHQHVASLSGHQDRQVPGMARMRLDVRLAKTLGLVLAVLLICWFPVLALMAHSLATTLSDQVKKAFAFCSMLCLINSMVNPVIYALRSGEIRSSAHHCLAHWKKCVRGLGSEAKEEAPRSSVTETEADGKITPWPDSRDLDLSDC
row,SMILES,EC50 [µM]
1,"CC(C)C[C@H](NC(=O)c1ccc(OCC2CC2)c(-c2ccc(Cl)cc2)n1)C(N)=O [Example 42, N-[(2S)-1-Amino-4-methyl-1-oxopentan-2-yl]-6-(4-chlorophenyl)-5-(cyclopropylmethoxy)pyridine-2-carboxamide]",0.00444
2,"CC(C)C[C@H](NC(=O)c1ccc(N2CC(C)(F)C2)c(OCC2CC2)n1)C(N)=O [Example 33, N-[(2S)-1-Amino-4-methyl-1-oxopentan-2-yl]-6-(cyclopropylmethoxy)-5-(3-fluoro-3-methylazetidin-1-yl)pyridine-2-carboxamide]",0.0196
3,"COC1CN(c2ccc(C(=O)N[C@@H](CC3CC3)C(N)=O)nc2OCC2CC2)C1 [Example 10, N-[(2S)-1-amino-3-cyclopropyl-1-oxopropan-2-yl]-6-(cyclopropylmethoxy)-5-(3-methoxyazetidin-1-yl)pyridine-2-carboxamide]",0.0634
4,"CC(C)(NC(=O)c1ccc(-c2ccccc2)c(OCC2CC2)n1)c1ncco1 [Example 5, 6-(Cyclopropylmethoxy)-N-[2-(1,3-oxazol-2-yl)propan-2-yl]-5-phenylpyridine-2-carboxamide]",0.0342
5,"CCC(CC)(NC(=O)c1ccc(N2CC(F)(C3CC3)C2)c(OCC2CC2)n1)C(=O)NCCCF [Example 41, 5-(3-Cyclopropyl-3-fluoroazetidin-1-yl)-6-(cyclopropylmethoxy)-N-[3-(3-fluoropropylcarbamoyl)pentan-3-yl]pyridine-2-carboxamide]",0.669
6,"COC1CN(c2ccc(C(=O)NC(C)(C)c3noc(C)n3)nc2OCC2CC2)C1 [Example 8, 6-(Cyclopropylmethoxy)-5-(3-methoxyazetidin-1-yl)-N-[2-(5-methyl-1,2,4-oxadiazol-3-yl)propan-2-yl]pyridine-2-carboxamide]",0.0866
7,"COC(=O)C(C)(C)NC(=O)c1ccc(-c2ccc(Cl)cc2)c(OCC2CC2)n1 [Example 2, Methyl 2-[[5-(4-chlorophenyl)-6-(cyclopropylmethoxy)pyridine-2-carbonyl]amino]-2-methylpropanoate]",0.0482
8,"CC(C)(NC(=O)c1ccc(-c2ccc(Cl)cc2)c(OCC2CC2)n1)c1ncco1 [Example 3, 5-(4-Chlorophenyl)-6-(cyclopropylmethoxy)-N-[2-(1,3-oxazol-2-yl)propan-2-yl]pyridine-2-carboxamide]",0.144
9,"Cc1nc([C@H](CC2CC2)NC(=O)c2ccc(OCC3CC3)c(Cl)n2)no1 [Example 18, 6-Chloro-5-(cyclopropylmethoxy)-N-[(1S)-2-cyclopropyl-1-(5-methyl-1,2,4-oxadiazol-3-yl)ethyl]pyridine-2-carboxamide]",0.646
10,"NC(=O)[C@@H]1CC(F)(F)CN1C(=O)c1ccc(OCC2CC2)c(-c2ccc(Cl)cc2)n1 [Example 39, (2S)-1-[6-(4-Chlorophenyl)-5-(cyclopropylmethoxy)pyridine-2-carbonyl]-4,4-difluoropyrrolidine-2-carboxamide]",0.018
11,"CC(C)C[C@H](NC(=O)c1ccc(N2CC3(COC3)C2)c(OCC2CC2)n1)C(N)=O [Example 12, N-[(2S)-1-amino-4-methyl-1-oxopentan-2-yl]-6-(cyclopropylmethoxy)-5-(2-oxa-6-azaspiro[3.3]heptan-6-yl)pyridine-2-carboxamide]",0.177
12,"CCC(CC)(NC(=O)c1ccc(N2CC(OC)C2)c(OCC2CC2)n1)C(=O)NCCF [Example 25, 6-(Cyclopropylmethoxy)-N-[3-(2-fluoroethylcarbamoyl)pentan-3-yl]-5-(3-methoxyazetidin-1-yl)pyridine-2-carboxamide]",0.334
13,"CC1(F)CN(c2ccc(C(=O)N3CC(F)(F)C[C@H]3C(N)=O)nc2OCC2CC2)C1 [Example 34, (2S)-1-[6-(Cyclopropylmethoxy)-5-(3-fluoro-3-methylazetidin-1-yl)pyridine-2-carbonyl]-4,4-difluoropyrrolidine-2-carboxamide]",0.0114
14,"Cc1nc(C(C)(C)NC(=O)c2ccc(-c3ccc(Cl)cc3)c(OCC3CC3)n2)no1 [Example 4, 5-(4-Chlorophenyl)-6-(cyclopropylmethoxy)-N-[2-(5-methyl-1,2,4-oxadiazol-3-yl)propan-2-yl]pyridine-2-carboxamide]",0.232
15,"NC(=O)[C@@H]1CC(F)(F)CN1C(=O)c1ccc(N2CCC3(C2)CC3(F)F)c(OCC2CC2)n1 (stereo partly drawn) [Example 31, (2S)-1-[6-(Cyclopropylmethoxy)-5-(2,2-difluoro-5-azaspiro[2.4]heptan-5-yl)pyridine-2-carbonyl]-4,4-difluoropyrrolidine-2-carboxamide]",0.019
16,"Cc1nc(C(C)(C)NC(=O)c2ccc(OCC3CC3)c(-c3ccc(Cl)cc3)n2)no1 [Example 40, 6-(4-Chlorophenyl)-5-(cyclopropylmethoxy)-N-[2-(5-methyl-1,2,4-oxadiazol-3-yl)propan-2-yl]pyridine-2-carboxamide]",0.0169
17,"NC(=O)[C@@H]1CC(F)(F)CN1C(=O)c1ccc(N2CC(F)(C3CC3)C2)c(OCC2CC2)n1 [Example 37, (2S)-1-[5-(3-Cyclopropyl-3-fluoroazetidin-1-yl)-6-(cyclopropylmethoxy)pyridine-2-carbonyl]-4,4-difluoropyrrolidine-2-carboxamide]",0.0193
18,"CC(C)C[C@H](NC(=O)c1ccc(N2CCC3(C2)CC3(F)F)c(OCC2CC2)n1)C(N)=O (stereo partly drawn) [Example 30, N-[(2S)-1-Amino-4-methyl-1-oxopentan-2-yl]-6-(cyclopropylmethoxy)-5-(2,2-difluoro-5-azaspiro[2.4]heptan-5-yl)pyridine-2-carboxamide]",0.0381
19,"CCC(CC)(NC(=O)c1ccc(OCC2CC2)c(Cl)n1)C(=O)NC [Example 17, 6-Chloro-5-(cyclopropylmethoxy)-N-[3-(methylcarbamoyl)pentan-3-yl]pyridine-2-carboxamide]",0.8
20,"CC1(F)CN(c2ccc(C(=O)NC3(CC(N)=O)COC3)nc2OCC2CC2)C1 [Example 35, N-[3-(2-Amino-2-oxoethyl)oxetan-3-yl]-6-(cyclopropylmethoxy)-5-(3-fluoro-3-methylazetidin-1-yl)pyridine-2-carboxamide]",0.213
21,"Cc1nc(C(C)(C)NC(=O)c2ccc(OCC3CC3)c(-c3cccc(Cl)c3)n2)no1 [Example 9, 6-(3-Chlorophenyl)-5-(cyclopropylmethoxy)-N-[2-(5-methyl-1,2,4-oxadiazol-3-yl)propan-2-yl]pyridine-2-carboxamide]",0.0424
22,"CSCC[C@H](NC(=O)c1ccc(OCC2CC2)c(Cl)n1)C(N)=O [Example 16, N-[(2S)-1-Amino-4-methylsulfanyl-1-oxobutan-2-yl]-6-chloro-5-(cyclopropylmethoxy)pyridine-2-carboxamide]",0.973
23,"CCC(CC)(NC(=O)c1ccc(N2CC(OC)C2)c(OCC2CC2)n1)C(=O)N1CC(F)C1 [Example 26, 6-(Cyclopropylmethoxy)-N-[3-(3-fluoroazetidine-1-carbonyl)pentan-3-yl]-5-(3-methoxyazetidin-1-yl)pyridine-2-carboxamide]",0.00458
24,"CCOC(=O)C(CC)(CC)NC(=O)c1ccc(N2CC(OC)C2)c(OCC2CC2)n1 [Example 20, Ethyl 2-[[6-(cyclopropylmethoxy)-5-(3-methoxyazetidin-1-yl)pyridine-2-carbonyl]amino]-2-ethylbutanoate]",0.0065
25,"CC(C)C[C@H](NC(=O)c1ccc(N2CCC(O)(C(F)(F)F)C2)c(OCC2CC2)n1)C(N)=O (stereo partly drawn) [Example 29, N-[(2S)-1-Amino-4-methyl-1-oxopentan-2-yl]-6-(cyclopropylmethoxy)-5-[3-hydroxy-3-(trifluoromethyl)pyrrolidin-1-yl]pyridine-2-carboxamide]",1.89
26,"NC(=O)[C@H](CC1CC1)NC(=O)c1ccc(OCC2CC2)c(OCC2CC2)n1 [Example 14, N-[(2S)-1-Amino-3-cyclopropyl-1-oxopropan-2-yl]-5,6-bis(cyclopropylmethoxy)pyridine-2-carboxamide]",0.095
27,"CC(C)(NC(=O)c1ccc(OCC2CC2)c(-c2cccc(Cl)c2)n1)c1nccs1 [Example 13, 6-(3-Chlorophenyl)-5-(cyclopropylmethoxy)-N-[2-(1,3-thiazol-2-yl)propan-2-yl]pyridine-2-carboxamide]",0.0231

# Same assay, conditions: CHO cells expressing human CB2 receptors; read-out: cAMP assay human CB2 EC50
row,SMILES,EC50 [µM]
1,"COC1CN(c2ccc(C(=O)NC3(CC(N)=O)COC3)nc2OCC2CC2)C1 [Example 22, N-[3-(2-Amino-2-oxoethyl)oxetan-3-yl]-6-(cyclopropylmethoxy)-5-(3-methoxyazetidin-1-yl)pyridine-2-carboxamide]",0.067
2,"CCC(CC)(NC(=O)c1ccc(N2CC(OC)C2)c(OCC2CC2)n1)C(=O)NC [Example 23, 6-(Cyclopropylmethoxy)-5-(3-methoxyazetidin-1-yl)-N-[3-(methylcarbamoyl)pentan-3-yl]pyridine-2-carboxamide]",0.047
3,"COC1CN(c2ccc(C(=O)NCC3(O)CCCCC3)nc2OCC2CC2)C1 [Example 24, 6-(Cyclopropylmethoxy)-N-[(1-hydroxycyclohexyl)methyl]-5-(3-methoxyazetidin-1-yl)pyridine-2-carboxamide]",1.29
